# Literature values as cited in patent US20070093966A1, “Drug candidate selection by hydrogen exchange characterization of ligand-induced receptor conformation” (ExSAR CORPORATION, priority 2004, published 2007).
# System: endogenous gene CAP in 3T3-L1 adipocytes
# Conditions: Camp et al.
smiles,measurement,value
Cc1c(C)c2c(c(C)c1O)CCC(C)(COc1ccc(CC3SC(=O)NC3=O)cc1)O2 (stereo not shown) [troglitazone],"agonist profile, induction of the endogenous gene CAP",full agonist
